Laboratory results as given in patent publication US20120017924A1 (priority 2001, published 2012).
Like-named read-outs stand apart in the source and are kept apart here.

Legend:
[1] = test system: adult; settings: Merck Index; cited from earlier work
[2] = smoking a cigarette; cited from earlier work
[3] = Excerpt: Absorption of nicotine from the oral cavity to the systemic circulation is dependent on the pH of the saliva, pH of the blood plasma and the pKa of nicotine, which is about 7.8. Assuming a pH of the plasma of 7.4 and of the saliva of 6.8 only about 10% of the nicotine will be in the free base form. Thus, in order to promote absorption of nicotine in a free base form, which is the form predominantly absorbed through the mucosa, the pH of the saliva must be increased. At a pH of 8.8 about 90% of the nicotine will then be in the free base form.

SMILES: CN1CCCC1c1cccnc1 (stereo not shown) [nicotine, 3-(1-methyl-2-pyrrolidinyl)-pyridine]
- amount of nicotine able to kill an adult [1]: Approximately forty
- time for nicotine to reach the brain after inhalation [2]: ten
- nicotine in the free base form ([3]; assuming pH of plasma 7.4 and of saliva 6.8): about 10%
- nicotine in the free base form ([3]; at a pH of 8.8): about 90%
